Test results from article PMC6014988, “Precision therapeutic targeting of human cancer cell motility” (Nature Communications, 2018).

Assays:
[1] = Three-day MTT cell growth inhibition assay, PC3M; type: cell-based, human; details: human, PC3M cells; PC3M; 3 days
Source text: (§1) Assays were in replicates of N = 3, and were repeated. […]
(§2) Values are the mean±SEM of a single experiment, in
(§3) replicates of N=4, repeated at least once (also N=4).
(§4) Supplementary Figure 1b. Synthetic round #2.

PC3M = assay: Three-day MTT cell growth inhibition assay, PC3M; type: cell-based, human
Source text: as §1, §2, §3, §4

MKK4 = MKK4 (Homo sapiens, UniProt P45985); assay: MKK4 in vitro kinase assay; type: biochemical
MKK4, sequence (P45985 whole entry): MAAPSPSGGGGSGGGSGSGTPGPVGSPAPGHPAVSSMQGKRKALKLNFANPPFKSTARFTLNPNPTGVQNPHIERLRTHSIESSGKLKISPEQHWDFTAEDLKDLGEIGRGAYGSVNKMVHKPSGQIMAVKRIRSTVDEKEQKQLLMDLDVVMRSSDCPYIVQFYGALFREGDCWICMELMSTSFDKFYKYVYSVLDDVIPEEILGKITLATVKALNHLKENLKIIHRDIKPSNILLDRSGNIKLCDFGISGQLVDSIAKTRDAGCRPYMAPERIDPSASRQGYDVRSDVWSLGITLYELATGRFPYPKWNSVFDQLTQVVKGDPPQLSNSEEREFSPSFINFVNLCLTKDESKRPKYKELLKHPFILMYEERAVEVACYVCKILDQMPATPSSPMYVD
Procedure: MEK4/MKK4/MAP2K4 in vitro kinase assay was performed as described by us[45].
Supplementary Figure 9. […] (a) Depiction of […]
established MKK4 pathway regulating human PCa cell metastasis. […]
to MKK4, as measured by fluorescence-based thermal shift assay. Values are the mean±SD (of N=2 replicates) increase in melting temperature (ΔTm) of purified recombinant MKK4 induced by the indicated concentrations of KBU2046 or genistein. […]
in an in vitro kinase assay. The indicated concentrations of KBU2046 were added to recombinant activated MKK4, and its ability to phosphorylate kinase dead p38α MAPK (K53A) was measured by Western blot for total (p38 MAPK) and phosphorylated (pp38 MAPK) forms of […]
HSP27 in cells. PC3-M cells were pre-treated for 24 hours with 50 µM KBU2046 or genistein, as indicated, then with TGFβ, and Western blot performed. All findings are from a single experiment, with similar findings in identical separate experiments, repeated at least once. […]

[2] = test system: 284 kinases and 20 phosphatases; assay: KinaseProfiler and PhosphataseProfiler assay platforms; type: biochemical
Source text: There were two initial false positives (for a false positive rate of 0.4%), that were subsequently found to be negative in a dedicated follow up analysis. Specific and important negative findings include MKK4, p38 MAPK (α, β, γ and δ […]
by competing for phospho-acceptor binding.
Kinase assay system #2. The Kinex™ kinase assay system (Kinexus Proteomics Company).
This platform uses recombinant human protein kinases expressed in an insect expression system, thus allowing an avenue for post-translational modification. Also, this platform measures inhibition of ATP binding. This platform putatively measured 200 different kinases, and we […]
tested KBU2046 at 1 and 10 μM. […] There were two […]
important technical issues. First, at 10 μM KBU2046 interfered with the colorimetric-based […]
However, while considering the above factors, this screen was informative for a number of […]
function by competing for ATP binding in the active site.
Kinase assay system #3. KinaseProfiler™ and PhosphataseProfiler™ assay platforms (Millipore). This platform is radiometric-based (considered gold standard). It measures competition with respect to ATP for kinases and substrate protein for phosphatases. Most proteins were expressed via an insect-based system, and it evaluates a panel of 284 kinases and 20 phosphatases. There were two initial false positives, for a false positive rate of 0.7%, but both […]

[3] = test system: human prostate, breast, colon, and lung cancer cells; assay: Single-cell migration assay; type: cell-based; details: 10 µM, 3 days
Procedure: Human prostate metastatic cells (PC3, PC3-M), and HPV-transformed normal (1532NPTX, 1542NPTX) and primary cancer (1532CPTX, 1542CPTX) cells, were treated with 10 µM genistein (G), KBU2046 (46), or vehicle (CO), and after 3 days, cell invasion was measured. Values are mean ± SEM of a single experiment in replicates of N = 4, with similar findings in multiple separate experiments (also N = 4). c Single-cell migration. Cell migration was measured after treatment for 3 days with 10 µM KBU2046 or vehicle (control). Values are mean ± SEM of a single experiment in replicates of N = 24, with similar findings in a separate experiment (also N = 24). *Denotes Student’s t-test P value <0.05, compared to controls. d Human cord blood hematopoietic stem cell colony formation assay. Values are the mean ± SD number of total, CFU-GM, CFU-GEMM, or BFU-E colonies at 14 days after treatment with KBU2046, from a single experiment in replicates of N = 2. e Induction of estrogen-responsive genes. Values are the mean ± SD of a single experiment, with similar results seen in a separate experiment, both in replicates of N = 2 […]

SMILES: O=C1c2ccccc2OCC1c1ccc(F)cc1 (racemic) [KBU2046, (±)-3(4-fluorophenyl)chroman-4-one]
- viability at 3 days, 50 µM [1]: 100%
- IC20 (PC3M; Homo sapiens, PC-3M, 72 h, PC3M, concentration inhibiting cell growth by 20% after 3 days): > 50 µM
- IC50 (PC3M; Homo sapiens, PC-3M, 72 h, PC3M, concentration inhibiting cell growth by 50% after 3 days): > 50 µM
- cell growth inhibition (PC3M; PC3-M cells, three day MTT, SAR rounds): no growth inhibitory
- inhibition of MKK4 kinase activity (MKK4): nor inhibit its kinase activity
- inhibition of phosphatase activity ([2]; 20 phosphatases): No evidence supports inhibition
- inhibition of kinase activity ([2]; radiometric, 284 kinases): no evidence that KBU2046 inhibits
- cell migration [3]: inhibited the migration
